Measured values taken from US20250354998A1, “METHODS OF DIAGNOSING AND TREATING MULTIPLE SCLEROSIS BY DETECTING A BIOMARKER IN THE CEREBROSPINAL FLUID” (Principia Biopharma Inc., priority 2023, published 2025).

What was measured:
[1] = test system: CSF proteome (Olink Explore 384 panels, 1463 analytes); assay: Olink proteomics of cerebrospinal fluid of MS patients under therapy; assay type: in vivo, human
Experimental: In the present study, a platform technology (Olink® Proteomics) was used. This test utilizes a high throughput, multiplex immunoassay technology that enables the measurement of over 1000 proteins from small sample volumes. See e.g., Assarsson E, et al. PLoS One 2014; 9(4): e95192; and Cui M, et al. Lab Invest 2022, each of which is incorporated by reference in its entirety. Two sets of subjects were analyzed. First, Olink proteomics technology was used to profile the baseline CSF proteome of untreated MS patients. Second, alterations to the MS CSF proteome upon therapeutic intervention with either a B cell depleting agent alone or after transitioning to tolebrutinib, a brain penetrant Bruton's tyrosine kinase (BTK) inhibitor, was evaluated.
To establish a baseline of proteomic expression, an Olink proteomics assay was performed on the CSF of multiple groups of subjects, including healthy volunteers (HV), HTLV 1 associated myelopathy/tropical spastic paraparesis (HAM/TSP) patients, radiologically isolated syndrome (RIS) patients, clinically isolated syndrome (CIS) patients, and multiple sclerosis (MS) patients, including patients with relapsing remitting MS (RRMS), secondary progressive MS (SPMS), and primary progressive MS (PPMS). CSF samples were collected from 31 healthy volunteers and 71 treatment-naïve subjects with MS. The CSF proteome was examined using the Cardiometabolic, Inflammation, Neurology, and Oncology Olink Explore 384 panels (1463 analytes total).
Next, it was examined whether treatment with different therapies for patients having MS would result in differential proteome expression. A group of subjects with MS were treated either with an anti-CD20 antibody alone or with an anti-CD20 antibody and then transitioning to tolebrutinib, and their proteome was examined using similar techniques described in Example 1B. More specifically, the cohort of MS patients in this example included untreated patients, patients treated with a B cell depleting agent for at least six months, and patients 12 weeks and 48 weeks after transitioning from a B cell depletion therapy to tolebrutinib in a clinical trial (NCT04742400).
Several participants (age [mean±standard deviation]: 48.2±7.9 years; sex: 2 female) who had been treated with ocrelizumab for >6 months (median: 3.2 years; range: 1.8-4.0 years) were included. Participants had no signs of acute focal inflammation based on magnetic resonance imaging. CSF was collected before baseline (within 6 months since last ocrelizumab infusion), and at 12 and 48 weeks after transitioning to tolebrutinib 60 mg.
The data were sorted into two sets of comparisons. The comparisons include (1) subjects treated with an anti-CD20 antibody compared to untreated MS subjects (FIG. 3) and (2) subjects treated with tolebrutinib after transitioning from an anti-CD20 antibody compared to subjects treated with an anti-CD20 antibody (FIG. 4A).

CXCL13 = CXCL13 protein level in CSF by MSD (meso scale discovery); assay type: in vivo, human; conditions: MSD (FIG. 6); twelve week and forty-eight week course of tolebrutinib vs untreated, HAM/TSP or continued ocrelizumab
Source text: HV: health volunteer; HAM/TSP: HTLV-1 associated myelopathy/tropical spastic paraparesis without treatment; MS_untreated: subjects with MS but have not been treated; MS_ocrelizumab: subjects treated only with an anti-CD20 antibody; MS_tolebrutinib: subjects treated with daily doses of tolebrutinib.
Similarly, this decrease was seen when comparing subjects who continued treatment with the anti-CD20 antibody (ocrelizumab) with subjects treated with a twelve week and forty-eight week course of tolebrutinib. FIGS. 4D, 5, and 6.

[2] = CSF, 48 weeks after transitioning from anti-CD20 antibody to tolebrutinib 60 mg vs anti-CD20 antibody
[3] = CSF, 48 weeks post-transition to tolebrutinib vs anti-CD20
[4] = CSF, subjects treated with anti-CD20 antibody for at least six months vs untreated MS subjects

Compound: C=CC(=O)N1CCC[C@@H](n2c(=O)n(-c3ccc(Oc4ccccc4)cc3)c3c(N)nccc32)C1 [tolebrutinib, (R)-1-(1-acryloylpiperidin-3-yl)-4-amino-3-(4-phenoxyphenyl)-1H-imidazo[4,5-c]pyridin-2(3H)-one]
- example biomarkers NEFL, CXCL13, CXCL10, CD27, CCL4 and CCL3 in CSF ([1]; 48 weeks after transitioning from anti-CD20 therapy to tolebrutinib): disease-reversed proteins
- ANGPT1 Fold-Change (48wkBTKi. vs. antiCD20) [1, 2]: −1.658
- ANGPTL2 Fold-Change (48wkBTKi. vs. antiCD20) [1, 2]: −3.266
- ATXN10 Fold-Change (48wkBTKi. vs. antiCD20) [1, 2]: −6.437
- CCL3 Fold-Change (48wkBTKi. vs. antiCD20) [1, 2]: −2.142
- CCL4 Fold-Change (48wkBTKi. vs. antiCD20) [1, 2]: −2.092
- CCL8 Fold-Change (48wkBTKi. vs. antiCD20) [1, 2]: −2.68
- CCL11 Fold-Change (48wkBTKi. vs. antiCD20) [1, 2]: −1.9597
- CCN4 Fold-Change (48wkBTKi. vs. antiCD20) [1, 2]: −1.611
- CD4 Fold-Change (48wkBTKi. vs. antiCD20) [1, 2]: −1.706
- CD8A Fold-Change (48wkBTKi. vs. antiCD20) [1, 2]: −1.75
- CD38 Fold-Change (48wkBTKi. vs. antiCD20) [1, 2]: −2.035
- CD276 Fold-Change (48wkBTKi. vs. antiCD20) [1, 2]: −2.173
- CD302 Fold-Change (48wkBTKi. vs. antiCD20) [1, 2]: −1.5791
- CDH3 Fold-Change (48wkBTKi. vs. antiCD20) [1, 2]: −2.293
- CDNF Fold-Change (48wkBTKi. vs. antiCD20) [1, 2]: −2.1
- CGREF1 Fold-Change (48wkBTKi. vs. antiCD20) [1, 2]: −1.535
- CHRDL1 Fold-Change (48wkBTKi. vs. antiCD20) [1, 2]: −2.236
- CLEC4C Fold-Change (48wkBTKi. vs. antiCD20) [1, 2]: −1.714
- CLUL1 Fold-Change (48wkBTKi. vs. antiCD20) [1, 2]: −2.021
- CTRC Fold-Change (48wkBTKi. vs. antiCD20) [1, 2]: −2.869
- CXCL1 Fold-Change (48wkBTKi. vs. antiCD20) [1, 2]: −3.054
- CXCL8 Fold-Change (48wkBTKi. vs. antiCD20) [1, 2]: −1.605
- CXCL10 Fold-Change (48wkBTKi. vs. antiCD20) [1, 2]: −3.598
- DRAXIN Fold-Change (48wkBTKi. vs. antiCD20) [1, 2]: −2.047
- HS3ST3B1 Fold-Change (48wkBTKi. vs. antiCD20) [1, 2]: −1.708
- HYOU1 Fold-Change (48wkBTKi. vs. antiCD20) [1, 2]: −1.676
- IL5RA Fold-Change (48wkBTKi. vs. antiCD20) [1, 2]: −1.716
- IL11 Fold-Change (48wkBTKi. vs. antiCD20) [1, 2]: −6.841
- KAZALD1 Fold-Change (48wkBTKi. vs. antiCD20) [1, 2]: −1.548
- KRT18 Fold-Change (48wkBTKi. vs. antiCD20) [1, 2]: −1.6528
- LPL Fold-Change (48wkBTKi. vs. antiCD20) [1, 2]: −1.744
- LTA Fold-Change (48wkBTKi. vs. antiCD20) [1, 2]: −1.552
- MATN3 Fold-Change (48wkBTKi. vs. antiCD20) [1, 2]: −1.889
- MFAP5 Fold-Change (48wkBTKi. vs. antiCD20) [1, 2]: −2.536
- MSLN Fold-Change (48wkBTKi. vs. antiCD20) [1, 2]: −2.068
- MZB1 Fold-Change (48wkBTKi. vs. antiCD20) [1, 2]: −1.968
- NEFL Fold-Change (48wkBTKi. vs. antiCD20) [1, 2]: −3.42
- NPDC1 Fold-Change (48wkBTKi. vs. antiCD20) [1, 2]: −2.471
- NPTX1 Fold-Change (48wkBTKi. vs. antiCD20) [1, 2]: −2.103
- NPY Fold-Change (48wkBTKi. vs. antiCD20) [1, 2]: −1.797
- NTproBNP Fold-Change (48wkBTKi. vs. antiCD20) [1, 2]: −2.314
- NUB1 Fold-Change (48wkBTKi. vs. antiCD20) [1, 2]: −1.624
- NUCB2 Fold-Change (48wkBTKi. vs. antiCD20) [1, 2]: −2.551
- PDCD5 Fold-Change (48wkBTKi. vs. antiCD20) [1, 2]: −2.511
- PRL Fold-Change (48wkBTKi. vs. antiCD20) [1, 2]: −3.416
- ROBO1 Fold-Change (48wkBTKi. vs. antiCD20) [1, 2]: −1.511
- RTBDN Fold-Change (48wkBTKi. vs. antiCD20) [1, 2]: −2.625
- SCG2 Fold-Change (48wkBTKi. vs. antiCD20) [1, 2]: −2.959
- SCG3 Fold-Change (48wkBTKi. vs. antiCD20) [1, 2]: −2.2848
- SPRY2 Fold-Change (48wkBTKi. vs. antiCD20) [1, 2]: −1.907
- STC1 Fold-Change (48wkBTKi. vs. antiCD20) [1, 2]: −1.863
- TDGF1 Fold-Change (48wkBTKi. vs. antiCD20) [1, 2]: −4.457
- TIMP4 Fold-Change (48wkBTKi. vs. antiCD20) [1, 2]: −1.776
- TNFRSF6B Fold-Change (48wkBTKi. vs. antiCD20) [1, 2]: −2.999
- TNFRSF13B Fold-Change (48wkBTKi. vs. antiCD20) [1, 2]: −2.063
- WFIKKN2 Fold-Change (48wkBTKi. vs. antiCD20) [1, 2]: −2.432
- WIF1 Fold-Change (48wkBTKi. vs. antiCD20) [1, 2]: −1.994
- share of disease-associated proteins reverting towards levels observed in healthy volunteers ([1]; CSF, 48 weeks after transitioning to tolebrutinib from a B-cell depleting therapy): 47%
- number of proteins with decreased abundance [1, 3]: 60 proteins
- number of proteins with increased abundance [1, 3]: 0 proteins
- proteins with increased abundance in subjects with MS (relative to HV) that were reversed ([1]; CSF, 48 weeks post-transitioning to tolebrutinib relative to anti-CD20 baseline levels): 30 proteins
- CXCL10 in CSF ([1]; Olink, subjects who switched from ocrelizumab to tolebrutinib (12 and 48 weeks)): downregulated
- CXCL13 in CSF ([1]; Olink, subjects who switched from ocrelizumab to tolebrutinib, twelve week and forty-eight week course): downregulated
- CXCL13 in CSF (CXCL13): decrease

Compound: anti-CD20 antibody: B cell depleting agent; participants had been treated with ocrelizumab, humanized monoclonal antibody directed against the CD20 antigen
- CD6 Fold-change (antiCD20. vs. Untreated) [1, 4]: −1.8
- CD22 Fold-change (antiCD20. vs. Untreated) [1, 4]: −2.442
- FCRL1 Fold-change (antiCD20. vs. Untreated) [1, 4]: −2.744
- SORD Fold-change (antiCD20. vs. Untreated) [1, 4]: 2.045
